Laboratory results from patent publication US20220370440A1 (Lead Discovery Center GmbH, priority 2018, published 2022).

Tests used:
[1] = target: EGFR T790ML858R (Homo sapiens, UniProt P00533, L858R/T790M); experiment: EGFR T790ML858R Lance assay; format: biochemical
Protocol: (§1) Inhibition is indicated as […] [nM] (“−”=not measured). Compounds having an activity designated as “A” provided an IC50≤100 nM; compounds having an activity designated as “B” provided an 100 nM<IC50≤500 nM; compounds having an activity designated as “C” provided an 500 nM<IC50≤1000 nM; compounds having an activity designated as “D” provided an 1000 nM<IC50≤100000 nM; and compounds having an activity designated as “E” provided an IC50>10000 nM.

[2] = target: T1, HER2 INS YVMA (Homo sapiens, UniProt P04626, INS775YVMA); experiment: Lance Kinase Activity Assay, HER2 INS YVMA (Her2 Exon 20 INSYVMA Lance); format: biochemical; conditions: biochemical Lance assay
T1 construct: purchased DPF
Method in brief: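 IC50 was fitted to sigmoidal curves of TR-FRET signal (665 and 615 nm emission after 340 nm excitation) from an Eu anti-phospho antibody binding the phosphorylated ULight peptide. The ATP-started reaction ran 1 h at RT and was then quenched with 10 mM EDTA plus antibody for a further 1 h. Compounds were tested as 8-point, 3-fold dilutions.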

[3] = system: H1975; experiment: H1975 CellTiter-Glo; format: cell-based; conditions: Homo sapiens, NCI-H1975; 72 h compound incubation; read-out: H1975 CTG IC50
Method in brief: (§2)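 ATP-based luminescent viability read after 72 h compound exposure (DMSO vehicle, range of concentrations), cells plated 24 h beforehand at 37° C, 5% CO2. IC50 by dose-response fitting; 10 μM Staurosporine and DMSO controls, Z′-factor ≥0.5 required.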

[4] = target: EGFR wt (Homo sapiens, UniProt P00533); experiment: EGFR wt Lance assay; format: biochemical
Chain of EGFR wt (P00533 25-1210): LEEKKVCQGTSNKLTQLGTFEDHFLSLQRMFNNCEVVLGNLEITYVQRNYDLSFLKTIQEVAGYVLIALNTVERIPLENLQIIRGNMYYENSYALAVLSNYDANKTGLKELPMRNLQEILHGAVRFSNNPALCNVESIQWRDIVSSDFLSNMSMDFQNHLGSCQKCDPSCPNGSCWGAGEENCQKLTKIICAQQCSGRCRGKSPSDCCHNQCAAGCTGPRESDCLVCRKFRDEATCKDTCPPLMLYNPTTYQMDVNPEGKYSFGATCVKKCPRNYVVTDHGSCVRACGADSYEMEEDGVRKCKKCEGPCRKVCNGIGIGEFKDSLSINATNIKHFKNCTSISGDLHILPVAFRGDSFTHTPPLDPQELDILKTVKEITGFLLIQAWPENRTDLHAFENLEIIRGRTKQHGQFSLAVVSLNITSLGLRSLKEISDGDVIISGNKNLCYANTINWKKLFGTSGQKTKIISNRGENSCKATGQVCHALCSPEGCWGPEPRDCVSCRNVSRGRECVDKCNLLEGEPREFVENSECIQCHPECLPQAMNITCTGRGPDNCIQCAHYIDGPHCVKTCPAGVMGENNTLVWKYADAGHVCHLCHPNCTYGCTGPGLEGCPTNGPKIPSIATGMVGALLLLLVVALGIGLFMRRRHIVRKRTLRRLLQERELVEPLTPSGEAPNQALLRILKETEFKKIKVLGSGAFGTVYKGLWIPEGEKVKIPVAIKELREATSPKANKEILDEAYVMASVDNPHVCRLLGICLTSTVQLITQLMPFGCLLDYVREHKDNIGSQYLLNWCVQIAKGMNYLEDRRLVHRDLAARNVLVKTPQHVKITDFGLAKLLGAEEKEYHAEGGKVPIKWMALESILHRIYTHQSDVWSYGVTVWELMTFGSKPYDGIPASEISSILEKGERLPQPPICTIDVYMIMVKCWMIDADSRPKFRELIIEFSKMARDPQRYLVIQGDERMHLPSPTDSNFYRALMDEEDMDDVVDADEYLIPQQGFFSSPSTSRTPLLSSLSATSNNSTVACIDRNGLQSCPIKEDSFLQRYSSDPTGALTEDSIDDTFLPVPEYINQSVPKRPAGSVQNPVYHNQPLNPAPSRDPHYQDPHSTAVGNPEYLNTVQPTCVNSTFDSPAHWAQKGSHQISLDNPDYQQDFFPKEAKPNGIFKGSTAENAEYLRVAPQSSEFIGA
Protocol: as §1

[5] = target: Her2 Exon 20 INSYVMA Ba/F3 (Homo sapiens, UniProt P04626, DUP772-775, cells depend on it); experiment: Her2 Exon 20 INSYVMA Ba/F3 CellTiter-Glo; format: cell-based; conditions: CellTiter-Glo, 72 h, read-out: Her2 Exon 20 INSYVMA Ba/F3 CTG IC50
Chain of Her2 Exon 20 INSYVMA Ba/F3 (P04626 with tags, fused parts or gaps DUP772-775): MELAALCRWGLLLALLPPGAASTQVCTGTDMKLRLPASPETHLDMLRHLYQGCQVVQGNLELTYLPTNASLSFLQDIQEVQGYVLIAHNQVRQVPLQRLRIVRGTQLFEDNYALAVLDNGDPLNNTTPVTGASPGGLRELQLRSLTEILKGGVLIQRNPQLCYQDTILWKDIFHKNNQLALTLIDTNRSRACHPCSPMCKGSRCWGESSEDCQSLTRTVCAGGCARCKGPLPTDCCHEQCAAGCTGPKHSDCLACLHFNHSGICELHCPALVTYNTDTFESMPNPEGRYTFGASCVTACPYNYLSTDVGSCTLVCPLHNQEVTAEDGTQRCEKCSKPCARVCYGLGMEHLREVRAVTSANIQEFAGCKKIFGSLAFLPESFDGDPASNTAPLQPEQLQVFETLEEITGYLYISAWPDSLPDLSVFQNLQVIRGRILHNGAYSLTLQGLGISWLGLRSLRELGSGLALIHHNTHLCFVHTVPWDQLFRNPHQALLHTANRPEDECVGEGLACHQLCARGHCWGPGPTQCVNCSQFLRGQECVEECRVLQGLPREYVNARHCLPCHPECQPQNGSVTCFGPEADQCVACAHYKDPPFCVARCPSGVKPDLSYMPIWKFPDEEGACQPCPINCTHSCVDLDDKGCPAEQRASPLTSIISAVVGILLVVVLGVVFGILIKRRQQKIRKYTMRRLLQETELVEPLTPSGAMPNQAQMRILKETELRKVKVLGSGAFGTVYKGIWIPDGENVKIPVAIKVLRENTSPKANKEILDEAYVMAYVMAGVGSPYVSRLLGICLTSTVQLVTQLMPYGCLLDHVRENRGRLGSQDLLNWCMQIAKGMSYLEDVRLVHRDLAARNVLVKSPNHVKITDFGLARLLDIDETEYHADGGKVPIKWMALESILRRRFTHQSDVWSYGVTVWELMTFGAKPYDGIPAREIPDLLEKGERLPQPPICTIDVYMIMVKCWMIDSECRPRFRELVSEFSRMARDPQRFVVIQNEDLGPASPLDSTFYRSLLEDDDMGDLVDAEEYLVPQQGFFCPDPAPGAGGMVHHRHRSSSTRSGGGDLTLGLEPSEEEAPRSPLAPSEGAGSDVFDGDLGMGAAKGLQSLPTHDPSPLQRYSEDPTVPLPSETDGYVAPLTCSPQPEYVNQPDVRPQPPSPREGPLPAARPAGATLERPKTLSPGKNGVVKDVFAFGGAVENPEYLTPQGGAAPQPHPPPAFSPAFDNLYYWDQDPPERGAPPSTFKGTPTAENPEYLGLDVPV
Method in brief: (§3)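 Ba/F3 cells were seeded, left 24 h at 37 °C/5% CO2, then exposed to compound dilutions in DMSO for 72 h. Viability was read as ATP luminescence (CellTiter-Glo) and IC50 fitted from dose–response curves; DMSO and 10 μM staurosporine defined the controls, and plates needed Z′ ≥0.5.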

[6] = system: A431; experiment: A431 CellTiter-Glo; format: cell-based; conditions: Homo sapiens, A-431; 72 h compound incubation; read-out: A431 CTG IC50
Method in brief: as §2

[7] = target: EGFR Exon 20 INSNPH Ba/F3 (Homo sapiens, UniProt P00533, DUP771-773, cells depend on it); experiment: EGFR Exon 20 INSNPH Ba/F3 CellTiter-Glo; format: cell-based; conditions: CellTiter-Glo, 72 h, read-out: EGFR Exon 20 INSNPH Ba/F3 CTG IC50
Chain of EGFR Exon 20 INSNPH Ba/F3 (P00533 with tags, fused parts or gaps DUP771-773): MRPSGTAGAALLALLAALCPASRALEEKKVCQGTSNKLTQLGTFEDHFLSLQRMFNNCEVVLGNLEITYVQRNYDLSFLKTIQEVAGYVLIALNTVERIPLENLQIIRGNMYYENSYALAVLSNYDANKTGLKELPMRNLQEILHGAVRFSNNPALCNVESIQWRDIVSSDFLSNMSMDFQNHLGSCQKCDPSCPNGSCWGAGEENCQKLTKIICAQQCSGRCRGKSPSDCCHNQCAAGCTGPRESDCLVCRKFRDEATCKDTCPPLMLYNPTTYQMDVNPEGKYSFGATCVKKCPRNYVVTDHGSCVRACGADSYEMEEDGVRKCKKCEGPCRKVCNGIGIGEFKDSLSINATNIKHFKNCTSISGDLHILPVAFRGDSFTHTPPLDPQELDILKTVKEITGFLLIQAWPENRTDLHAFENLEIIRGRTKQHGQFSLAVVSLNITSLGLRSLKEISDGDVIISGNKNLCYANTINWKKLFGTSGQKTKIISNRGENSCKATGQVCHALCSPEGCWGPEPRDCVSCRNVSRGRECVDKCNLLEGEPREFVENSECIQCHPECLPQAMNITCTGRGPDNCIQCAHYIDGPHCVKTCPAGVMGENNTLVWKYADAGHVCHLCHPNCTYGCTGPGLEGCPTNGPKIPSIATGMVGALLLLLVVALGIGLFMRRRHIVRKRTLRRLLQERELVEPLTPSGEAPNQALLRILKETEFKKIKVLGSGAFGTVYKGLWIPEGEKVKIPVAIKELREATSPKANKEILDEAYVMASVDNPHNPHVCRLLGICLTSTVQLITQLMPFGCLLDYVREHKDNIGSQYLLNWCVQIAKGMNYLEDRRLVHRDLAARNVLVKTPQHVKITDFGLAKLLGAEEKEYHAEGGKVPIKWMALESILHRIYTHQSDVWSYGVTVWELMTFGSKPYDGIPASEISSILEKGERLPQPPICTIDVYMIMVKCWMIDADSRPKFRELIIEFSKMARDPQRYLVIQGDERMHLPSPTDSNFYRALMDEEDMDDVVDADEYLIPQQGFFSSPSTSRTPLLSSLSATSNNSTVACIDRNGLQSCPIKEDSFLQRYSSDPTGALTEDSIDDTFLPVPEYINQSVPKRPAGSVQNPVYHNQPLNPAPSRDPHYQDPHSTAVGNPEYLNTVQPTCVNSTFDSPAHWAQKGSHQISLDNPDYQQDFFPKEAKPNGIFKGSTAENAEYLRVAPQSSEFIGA
Method in brief: as §3

Chain of EGFR T790ML858R (P00533 25-1210 T790M/L858R): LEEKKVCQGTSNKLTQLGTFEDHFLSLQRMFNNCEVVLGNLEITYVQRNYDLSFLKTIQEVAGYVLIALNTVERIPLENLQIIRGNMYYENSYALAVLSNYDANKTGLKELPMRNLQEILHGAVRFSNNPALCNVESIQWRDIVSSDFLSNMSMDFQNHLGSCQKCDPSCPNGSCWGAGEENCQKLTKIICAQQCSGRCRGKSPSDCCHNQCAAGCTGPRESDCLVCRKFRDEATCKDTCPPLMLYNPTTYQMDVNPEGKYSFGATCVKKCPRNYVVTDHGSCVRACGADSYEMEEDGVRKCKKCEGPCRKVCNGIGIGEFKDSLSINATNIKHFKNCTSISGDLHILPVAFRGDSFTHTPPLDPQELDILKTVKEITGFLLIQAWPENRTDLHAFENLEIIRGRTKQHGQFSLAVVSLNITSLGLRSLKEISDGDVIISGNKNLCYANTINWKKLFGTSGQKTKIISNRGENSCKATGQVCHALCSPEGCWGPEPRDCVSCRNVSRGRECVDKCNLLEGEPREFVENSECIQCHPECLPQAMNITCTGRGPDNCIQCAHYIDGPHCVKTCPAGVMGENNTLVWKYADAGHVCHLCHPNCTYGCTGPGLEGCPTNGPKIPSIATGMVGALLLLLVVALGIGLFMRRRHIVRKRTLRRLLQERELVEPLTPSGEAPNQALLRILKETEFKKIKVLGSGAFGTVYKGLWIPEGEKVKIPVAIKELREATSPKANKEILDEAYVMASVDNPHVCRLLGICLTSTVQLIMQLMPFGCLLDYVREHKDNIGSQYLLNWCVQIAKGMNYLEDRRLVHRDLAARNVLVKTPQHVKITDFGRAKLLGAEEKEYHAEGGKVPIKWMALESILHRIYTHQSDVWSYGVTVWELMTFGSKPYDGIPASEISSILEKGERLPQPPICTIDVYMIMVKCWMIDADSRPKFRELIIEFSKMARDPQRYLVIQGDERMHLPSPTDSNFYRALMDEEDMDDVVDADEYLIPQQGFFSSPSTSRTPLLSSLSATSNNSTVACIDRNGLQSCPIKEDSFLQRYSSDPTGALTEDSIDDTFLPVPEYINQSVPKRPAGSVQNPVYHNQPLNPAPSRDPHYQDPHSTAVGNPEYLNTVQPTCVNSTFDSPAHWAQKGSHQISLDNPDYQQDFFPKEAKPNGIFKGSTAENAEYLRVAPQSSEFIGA

| Compound | IC50 [1] [nM] | IC50 [2] [nM] | IC50 [3] [nM] | IC50 [4] [nM] | GI50 [5] [nM] | IC50 [6] [nM] | GI50 [7] [nM] |
| --- | --- | --- | --- | --- | --- | --- | --- |
| C=CC(=O)Nc1cc(-c2c(-c3ccc(N4CCN(C)CC4)cc3)[nH]c3ncc(C(=O)NCc4ccc(F)cc4F)cc23)ccc1C [Example 131, 3-(3-acrylamido-4-methylphenyl)-N-(2,4-difluorobenzyl)-2-(4-(4-methylpiperazin-1-yl)phenyl)-1H-pyrrolo[2,3-b]pyridine-5-carboxamide] | 500 to 1000 | 100 to 500 | 1000 to 100000 | ≤ 100 | 500 to 1000 | 1000 to 100000 | 1000 to 10000 |
| C=CC(=O)Nc1cc(-c2c(-c3ccc(CN(C)C)cc3)[nH]c3ncc(C(=O)OC(C)C)cc23)ccc1C [Example 151, isopropyl 3-(3-acrylamido-4-methylphenyl)-2-(4-((dimethylamino)methyl)phenyl)-1H-pyrrolo[2,3-b]pyridine-5-carboxylate] | ≤ 100 | ≤ 100 | 100 to 500 | ≤ 100 | 100 to 500 | 1000 to 100000 | 100 to 500 |
| C=CC(=O)Nc1cc(-c2c(-c3cnc(N4CCN(C)CC4)s3)[nH]c3ncc(C(=O)OC(C)C)cc23)ccc1C [Example 169, isopropyl 3-(3-acrylamido-4-methylphenyl)-2-(2-(4-methylpiperazin-1-yl)thiazol-5-yl)-1H-pyrrolo[2,3-b]pyridine-5-carboxylate] | ≤ 100 | ≤ 100 | 1000 to 100000 | ≤ 100 | 500 to 1000 | 1000 to 100000 | 100 to 500 |
| C=CC(=O)Nc1cc(-c2c(-c3ccc(N4CCN(C)CC4)cc3)[nH]c3nccc(Cl)c23)cc(C)c1C [Example 150, N-(5-(4-chloro-2-(4-(4-methylpiperazin-1-yl)phenyl)-1H-pyrrolo[2,3-b]pyridin-3-yl)-2,3-dimethylphenyl)acrylamide 2,2,2-trifluoroacetate] | ≤ 100 | ≤ 100 | ≤ 100 | ≤ 100 | 500 to 1000 | 500 to 1000 | 100 to 500 |
| C=CC(=O)N1CCc2ccc(-c3c(-c4ccnc(N5CCN(C)CC5)c4)[nH]c4nccc(OCC)c34)cc21 [Example 105] | ≤ 100 | ≤ 100 | ≤ 100 | ≤ 100 | 100 to 500 | 100 to 500 | 100 to 500 |
| C=CC(=O)Nc1cc(-c2c(-c3ccc(N4CCN(C)CC4)cc3)[nH]c3ncc(NC(C)=O)cc23)ccc1C [Example 201, N-(5-(5-acetamido-2-(4-(4-methylpiperazin-1-yl)phenyl)-1H-pyrrolo[2,3-b]pyridin-3-yl)-2-methylphenyl)acrylamide] | ≤ 100 | ≤ 100 | 1000 to 100000 | ≤ 100 | 1000 to 10000 | 1000 to 100000 | 1000 to 10000 |
| C=CC(=O)Nc1cc(-c2c(-c3ccc(S(=O)(=O)N4CCN(C)CC4)cc3)[nH]c3ncc(C(=O)OC(C)C)cc23)ccc1C [Example 167, isopropyl 3-(3-acrylamido-4-methylphenyl)-2-(4-((4-methylpiperazin-1-yl)sulfonyl)phenyl)-1H-pyrrolo[2,3-b]pyridine-5-carboxylate] | ≤ 100 | 100 to 500 | 500 to 1000 | ≤ 100 | 500 to 1000 | 1000 to 100000 | 500 to 1000 |
| C=CC(=O)Nc1cc(-c2c(-c3ccc(OCCN(C)C)cc3)[nH]c3ncc(C(=O)OC(C)C)c(C)c23)ccc1C [Example 205, isopropyl 3-(3-acrylamido-4-methylphenyl)-2-(4-(2-(dimethylamino)ethoxy)phenyl)-4-methyl-1H-pyrrolo[2,3-b]pyridine-5-carboxylate] | ≤ 100 | ≤ 100 | 100 to 500 | ≤ 100 | 100 to 500 | 1000 to 100000 | ≤ 100 |
| C=CC(=O)Nc1cc(-c2c(-c3ccc(N4CCN(C)CC4)cc3)[nH]c3ncc(C(=O)OC(C)C)cc23)c(C)cc1C [Example 202, isoproyl 3-(5-acrylamido-2,4-dimethylphenyl)-2-(4-(4-methylpiperazin-1-yl)phenyl)-1H-pyrrolo[2,3-b]pyridine-5-carboxylate 2,2,2-trifluoroacetate] | 100 to 500 | 1000 to 10000 | 1000 to 100000 | ≤ 100 | 1000 to 10000 | > 10000 | 1000 to 10000 |
| C=CC(=O)Nc1cc(-c2c(-c3ccc(N4CCN(C)CC4)cc3)[nH]c3ncc(C(=O)NCc4cccc(NC(C)=O)c4)cc23)ccc1C [Example 121, N-(3-acetamidobenzyl)-3-(3-acrylamido-4-methylphenyl)-2-(4-(4-methylpiperazin-1-yl)phenyl)-1H-pyrrolo[2,3-b]pyridine-5-carboxamide] | 100 to 500 | ≤ 100 | > 10000 | ≤ 100 | > 10000 | > 10000 | > 10000 |
| C=CC(=O)Nc1cc(-c2c(-c3ccc(N4CCN(C)CC4)cc3)[nH]c3ncc(C(=O)NCCc4ccc(F)cc4)cc23)ccc1C [Example 124, 3-(3-acrylamido-4-methylphenyl)-N-(4-fluorophenethyl)-2-(4-(4-methylpiperazin-1-yl)phenyl)-1H-pyrrolo[2,3-b]pyridine-5-carboxamide] | ≤ 100 | 100 to 500 | 500 to 1000 | ≤ 100 | 100 to 500 | 500 to 1000 | 500 to 1000 |
| C=CC(=O)Nc1cc(-c2c(-c3cnc(N4CCOCC4)nc3)[nH]c3ncc(C(=O)OC(C)C)cc23)ccc1C [Example 173, isopropyl 3-(3-acrylamido-4-methylphenyl)-2-(2-morpholinopyrimidin-5-yl)-1H-pyrrolo[2,3-b]pyridine-5-carboxylate] | 1000 to 100000 | > 10000 | 1000 to 100000 | 500 to 1000 | 1000 to 10000 | 1000 to 100000 | 1000 to 10000 |
| C=CC(=O)Nc1cc(-c2c(-c3ccc(N4CCN(C)CC4)cc3)[nH]c3ncc(CC(=O)N(C)C)cc23)ccc1C [Example 194, N-(5-(5-(2-(dimethylamino)-2-oxoethyl)-2-(4-(4-methylpiperazin-1-yl)phenyl)-1H-pyrrolo[2,3-b]pyridin-3-yl)-2-methylphenyl)acrylamide 2,2,2-trifluoroacetate] | ≤ 100 | ≤ 100 | 1000 to 100000 | ≤ 100 | 1000 to 10000 | 1000 to 100000 | 1000 to 10000 |
| C=CC(=O)Nc1cc(-c2c(-c3ccnc(N4CCN(C)CC4)c3)[nH]c3ncc(C(=O)OC(C)C)cc23)cc(F)c1C [Example 180, isopropyl 3-(3-acrylamido-5-fluoro-4-methylphenyl)-2-(2-(4-methylpiperazin-1-yl)pyridin-4-yl)-1H-pyrrolo[2,3-b]pyridine-5-carboxylate] | ≤ 100 | ≤ 100 | 500 to 1000 | ≤ 100 | 100 to 500 | 1000 to 100000 | 100 to 500 |
| C=CC(=O)N1CCOc2ccc(-c3c(-c4cccc(OCCN5CCCC5)c4)[nH]c4nccc(Cl)c34)cc21 [Example 103, 1-(6-(4-chloro-2-(3-(2-(pyrrolidin-1-yl)ethoxy)phenyl)-1H-pyrrolo[2,3-b]pyridin-3-yl)-2H-benzo[b][1,4]oxazin-4(3H)-yl)prop-2-en-1-one] | ≤ 100 | ≤ 100 | 100 to 500 | ≤ 100 | 100 to 500 | 500 to 1000 | 100 to 500 |
| C=CC(=O)Nc1cc(-c2c(-c3ccc(N4CCN(C)CC4)cc3)[nH]c3ncc(CC(=O)O)cc23)ccc1C [Example 189, 2-(3-(3-acrylamido-4-methylphenyl)-2-(4-(4-methylpiperazin-1-yl)phenyl)-1H-pyrrolo[2,3-b]pyridin-5-yl)acetic acid 2,2,2-trifluoroacetate] | ≤ 100 | ≤ 100 | > 10000 | ≤ 100 | > 10000 | > 10000 | > 10000 |
